Data set [1] has as its system SIINFEKL/K^b-restricted CD8^+ CTL clones. As to the kind of experiment: T-hybrid CTL recognition assay (IL-2 bioassay), panel of clones. The format is cell-based, mouse. Particulars: 1 μM peptide pulsed on I-3 cells. The text has this:
(§1) The SIINFEKL/K^b-restricted CD8^+ CTL clones B3.1, GA4.2 (Nikolic-Zugic, J., and Carbone F. R. (1990). The effect of mutations in the MHC Class I peptide binding groove on the cytotoxic T lymphocyte recognition of the Kb restricted ovalbumin determinant. Eur. J. Immunol. 20:2431), 149.13.13, 149.42.12 (Clark S. R., Barnden M., Kurts C., Carbone F. R., Miller J. F., Heath J. R. Characterization of the ovalbumin-specific TCR transgenic line OT-I: MHC elements for positive and negative selection. Immunol Cell Biol. April 2000;78(2): 110-7), and the herpes simplex viral specific clone HSV2.3 (Wallace, M. E., Keating, R., Heath, W R., Carbone, F. R. 1999. […]
(§2) CTLL-2 cells were grown to ˜5×10^5 cell per ml then washed 3 times in media containing no exogenous IL-2. […] Once dry, scintillation fluid (Packard Biosciences, Melbourne) was added, then counted on a TopCount scintillation counter (Packard Biosciences, Melbourne).
(§3) CTL clones (expressing different TCR Vβ/Vα segments) restricted by the H2-K^b molecule, and specific to the SIINFEKL peptide were tested for their ability to recognise the various βC3-amino acid substituted analogues (Table X). […] CTTL-2 proliferation is then measured by 3H-Thymydine incorporation and counted on a scintillation counter.

Data set [2] has as its system CTL clone HSV2.3. As to the kind of experiment: T-hybrid CTL recognition assay (IL-2 bioassay), control clone HSV2.3. The format is cell-based, mouse.
From the text: as §1, §2, §3

The nature of data set [3]: 20% mouse serum (From adult male BL6 mice). Particulars: 37° C., up to 12 hrs.
Data set [4] can be described thus: Serum stability assay. Type of data set: in vitro ADME, mouse. Conditions: for remaining at 2 h, 0.091 mg/ml: male. Here is the method:
10 μL of an aqueous peptide solution containing 1 mg/ml peptide was added to 100 μl of 20% mouse serum (From adult male BL6 mice), and incubated at 37° C. for 0 min, 2 hrs and 12 hrs. At each time point samples were taken and serum proteins removed by precipitation through the addition of 40 μl of 15% TCA. Samples were stored at 4° C. for 30 min and centrifuged. Supernatants were then removed and kept on ice. 50 μl of each supernatant was analysed by RP-HPLC using 0.1% TFA in water (eluent A) and 0.09% TFA in 60% aqueous acetonitrile (eluent B) and the following gradient.
The column was a Pharmacia μRPC octadecyl silica column of […] nominal particle size and 300 Å pore size. The flow rate was 200 μl/min and UV detection was used at 214 nm, 254 nm and 280 nm. Values are given as area of peptide peak (214 nm). Peptide amounts at T=0 min were used as 100%. Peptide digests were fractionated and Electrospray ionisation (ESI) Ion Trap Mass spectrometry was used to characterise the fragmentation pattern of SIINFEKL and selected β-amino acid analogues.
Since β-amino acids are resistant to proteolysis, the influence of peptide modification on stability against proteolysis was tested by monitoring the degradation of the peptides in mouse blood serum. Degradation kinetics were followed by reverse phase-HPLC (RP-HPLC) analysis using corresponding peak area for peptide quantification. The parental SIINFEKL peptide was degraded rapidly, with only 5% of the peptide being recovered after 2 hrs. For the βC3-analogues, the amount of degradation was highly dependent on the position of the substitution. Limited stabilisation occurred for peptides with substitutions at P3 and P4 with 8% and 7% recovery respectively (FIG. 11). For the substitution at P1, 10% of the initial peak was recovered. […] For β-Phe at P5 and β-Leu at P8 over 25% of the initial peak was recovered after 2 hrs.

In data set [5] the target is HLA-A2 (Homo sapiens, UniProt P04439, D140Y/D185E/D98H/E176V/E277Q/G131W/G231S/I119V/I121R/I166T/I218V/L300P/L318F/N151K/N90K/P208A/P217A/Q86G/Q94H/R138H/R169H/T345S). Conditions: cited from earlier work.
Data set [6] relates to CD8^+ T cell response. Conditions: mixture of peptides intradermally, patients bearing NY-ESO^+ tumors; cited from earlier work.
For data set [7], the target named is MHC Class I H2-K^b on cells (mouse). As to the kind of experiment: flow cytometry on RMA-S cells, with against without exogenous peptide.
The nature of data set [8]: construct that expresses an ER-targeted ESO157-167.
Data set [9] addresses H2-K^b complex with Peptide 4 (βC3-Ile at P3) on cells (mouse). As to the kind of experiment: RMA-S stabilisation assay with 25-D1.16, flow cytometry. For orientation: Flow cytometry measures light scatter and fluorescence of single cells or particles in a stream.
In data set [10] the target is H2-K^b complex with Peptide 2 (βC3-Ser at P1) on cells (mouse). Described as above.
Setting [11] is: BL6, 20% mouse serum, 37° C., RP-HPLC peak area 214 nm, read-out: peptide recovered after 2 hrs.

Here are results for 16 compounds from patent US20060122107A1 (Monash University, priority 2002, published 2006).

“Also recorded” adds a separate entry of the source. Read-outs that look alike come from different tables or passages of the source.

With “SSIEFARL [peptide recognised by the Herpes Simplex Virus specific control clone HSV2.3]”, the “CTL recognition by the clones” value in data set [1] is reported as “not recognised”. The “recognition by control clone HSV2.3” value in data set [2] was “mainly mediated”.

Consider Ser Ile β^c3Ile Asn Phe Glu Lys Leu, for which the not cleaved entry in data set [3] was “At t=2 hrs most of the full peptide has disappeared”.

With `CCC(C)C(CC(=O)N[C@@H](CC(N)=O)C(=O)N[C@@H](Cc1ccccc1)C(=O)N[C@@H](CCC(=O)O)C(=O)N[C@@H](CCCCN)C(=O)N[C@@H](CC(C)C)C(=O)O)NC(=O)[C@@H](NC(=O)[C@@H](N)CO)[C@@H](C)CC` (stereo partly drawn) [Peptide 4], the “serum cleavage sites (MS of fragments)” value in [4] is reported as “no cleavage at the P2-P3 bond”. The compound also registered a remaining at 2 h, 0.091 mg/ml in [4] (BL6, mouse, serum) of 8%.

For the compound `CCC(C)C(CC(=O)N[C@H](C(=O)N[C@@H](CC(N)=O)C(=O)N[C@@H](Cc1ccccc1)C(=O)N[C@@H](CCC(=O)O)C(=O)N[C@@H](CCCCN)C(=O)N[C@@H](CC(C)C)C(=O)O)[C@@H](C)CC)NC(=O)[C@@H](N)CO` (stereo partly drawn) [Peptide 3], in [4], the “resistance to proteolytic degradation” value is listed as “significant resistance”.

As to SIINFEKL, in data set [3], the cleaved bond entry was “S-I, 2 hrs; also recorded: I-N, 2 hrs; also recorded: F-E, 2 hrs; also recorded: E-K, 2 hrs”.

As to `CC[C@H](C)[C@H](NC(=O)CC(N)CO)C(=O)N[C@H](C(=O)N[C@@H](CC(N)=O)C(=O)N[C@@H](Cc1ccccc1)C(=O)N[C@@H](CCC(=O)O)C(=O)N[C@@H](CCCCN)C(=O)N[C@@H](CC(C)C)C(=O)O)[C@@H](C)CC` (stereo partly drawn) [Peptide 2], the remaining at 2 h, 0.091 mg/ml in data set [4] (setting [11]) was 10%.

In the case of SLLMWITQC [ESO157-165], in [5], the “binding to HLA-A2” value was “poor binding”. Also, the “CD8^+ T cell response after peptide vaccination” value in data set [6] was “later and at a lower level”.

Take H2-K^b specific monoclonal antibody Y-3: the fold increase in surface K^b staining with exogenous peptide in data set [7] worked out at 50 fold.

Turning to “SLLMWITQCFL [ESO157-167, NY-ESO 157-167 HLA-A*0201-restricted determinant]”, the “CD8^+ T cell response after peptide vaccination” value in data set [6] is “vigorous”.

Take Ser Ile Ile Asn β^c3Phe Glu Lys Leu: in data set [3], the not cleaved entry is “At t=12 hrs the full peptide has disappeared leaving only fragments”.

As to `CC[C@H](C)[C@H](NC(=O)[C@@H](NC(=O)[C@@H](N)CO)[C@@H](C)CC)C(=O)N[C@@H](CC(N)=O)C(=O)NC(CC(=O)N[C@@H](CCC(=O)O)C(=O)N[C@@H](CCCCN)C(=O)N[C@@H](CC(C)C)C(=O)O)Cc1ccccc1` (stereo partly drawn) [Peptide 6, SIINβFEKL], in data set [4], the “full peptide at t=12 hrs” value is on record as “disappeared” and the “serum cleavage sites (MS of fragments)” value is “cleavage did not occur after the P5 amino acid”. The compound further displayed a remaining at 2 h, 0.091 mg/ml in [4] (BL6, mouse, serum) greater than 25%.

Regarding SLLMWITQCFL, the fragment found result in [8] is on record as “ESO157-165; also recorded: ESO159-167”.

`CC[C@H](C)[C@H](NC(=O)[C@@H](NC(=O)[C@@H](N)CO)[C@@H](C)CC)C(=O)NC(CC(N)=O)CC(=O)N[C@@H](Cc1ccccc1)C(=O)N[C@@H](CCC(=O)O)C(=O)N[C@@H](CCCCN)C(=O)N[C@@H](CC(C)C)C(=O)O` (stereo partly drawn) [Peptide 5]: in data set [4] (BL6, mouse, serum), the remaining at 2 h, 0.091 mg/ml was found to be 7%.

Take `CC[C@H](C)[C@H](NC(=O)[C@@H](NC(=O)[C@@H](N)CO)[C@@H](C)CC)C(=O)N[C@@H](CC(N)=O)C(=O)N[C@@H](Cc1ccccc1)C(=O)N[C@@H](CCC(=O)O)C(=O)N[C@@H](CCCCN)C(=O)N[C@@H](CC(C)C)C(=O)O` [Peptide 1, SIINFEKL, reference compound]: in data set [4] (setting [11]), the remaining at 2 h, 0.091 mg/ml is 5%. The “serum cleavage sites (MS of fragments)” value in data set [4] (mouse serum) was “S*I*I*NF*E*KL”.

As for monoclonal antibody 25-D1.16, the fold increase in peptide concentration to reach the same level of recognition as SIINFEKL in data set [9] and in data set [10] was 100 fold in each case.

Regarding `CC[C@H](C)[C@H](NC(=O)[C@@H](NC(=O)[C@@H](N)CO)[C@@H](C)CC)C(=O)N[C@@H](CC(N)=O)C(=O)N[C@@H](Cc1ccccc1)C(=O)N[C@@H](CCC(=O)O)C(=O)N[C@@H](CCCCN)C(=O)NC(CC(=O)O)CC(C)C` (stereo partly drawn) [Peptide 8, SIINFEKβL], the remaining at 2 h, 0.091 mg/ml in data set [4] (setting [11]) was greater than 25%. In data set [4] (mouse serum, 2 hrs, listed as P8), the “resistance to proteolytic degradation” value is given as “significant resistance; also recorded: most stable”.
